In patent publication US8507493B2 (AbbVie Inc., priority 2009, dated 2013):

Target: T1, human 11β-HSD1 (Homo sapiens, UniProt P28845)
T1 construct: truncated (24-287aa) human 11β-HSD1 enzyme; made in house; host or cells: E. coli (lysate, not purified)
Experiment: Human 11β-HSD1 enzymatic SPA assay
Assay type: biochemical
Conditions: truncated (24-287aa) human 11β-HSD1, apparent Ki from IC50 by Cheng-Prusoff
Method: The ability of test compounds to inhibit human 11β-HSD1 enzymatic activity in vitro was evaluated in a Scintillation Proximity Assay (SPA). Tritiated-cortisone substrate, NADPH cofactor and titrated compound were incubated with truncated (24-287aa) human 11β-HSD1 enzyme at room temperature to allow the conversion to cortisol to occur. The reaction was stopped by adding a non-specific 11β-HSD inhibitor, glycyrrhetinic acid. The tritiated cortisol was captured by a mixture of an anti-cortisol monoclonal antibody and SPA beads coated with anti-mouse antibodies. The reaction plate was shaken at room temperature and the radiolabel bound to SPA beads was then measured on a scintillation counter. The 11β-HSD1 assay was carried out in 96-well microtiter plates in a total volume of […]. To start the assay, 188 μL of master mix which contained 75 nM ^3H-cortisone, 100 nM cortisone and 181 μM NADPH was added to the wells. In order to drive the reaction in the 11β-reductase direction, 1 mM glucose-6-phosphate (G-6-P) and 1 U/mL G-6-P dehydrogenase were also added as a NADPH generating system. Solid compound was dissolved in dimethyl sulfoxide to make a 10 mM stock followed by a subsequent 10-fold serial dilution with dimethyl sulfoxide. Each compound solution in dimethyl sulfoxide was 10-fold diluted in Tris/EDTA buffer (pH 7.4). 22 μL of titrated compound were then added in duplicate to the substrate. Reactions were initiated by the addition of 10 μL of 0.1 mg/mL E. coli lysates overexpressing 11β-HSD1 enzyme. After shaking and incubating plates for 30 minutes at room temperature, reactions were stopped by adding 10 μL of 1 mM glycyrrhetinic acid. The product, tritiated cortisol, was captured by adding 10 μL of 1 μM monoclonal mouse anti-cortisol antibodies and 50 μL of SPA beads coated with anti-mouse antibodies. After shaking for 30 minutes, plates were read in a Microbeta scintillation counter. Percent inhibition was calculated based on the background and the maximal signal. Wells that contained substrate without compound or enzyme were used as the background, while the wells that contained substrate and enzyme without any compound were considered as maximal signal. Percent of inhibition of each compound was calculated relative to the maximal signal and IC50 curves were generated. Assuming competitive inhibition the Cheng-Prusoff equation was used to calculate apparent Ki values from the IC50 values. This assay was applied to 11β-HSD2 as well, whereby 6 nM tritiated cortisol and 250 uM NAD^+ were used as substrate and cofactor, respectively.

T1 sequence (P28845 24-287): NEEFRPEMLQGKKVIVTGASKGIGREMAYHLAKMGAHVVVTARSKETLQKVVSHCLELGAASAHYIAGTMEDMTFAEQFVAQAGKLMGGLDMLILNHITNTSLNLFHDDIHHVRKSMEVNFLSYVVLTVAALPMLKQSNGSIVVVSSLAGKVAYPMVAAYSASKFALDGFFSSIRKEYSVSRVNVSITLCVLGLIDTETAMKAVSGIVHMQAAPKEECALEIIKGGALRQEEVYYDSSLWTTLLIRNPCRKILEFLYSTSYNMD

Ki [nM] | SMILES
100 to 1000 | COC(=O)C12CC3CC(C1)C(NC(=NC#N)C(C)(C)OCc1ccc(OC)cc1)C(C3)C2 (stereo not shown) [Example 28, Methyl(E)-4-({(1E)-N-cyano-2-[(4-methoxybenzyl)oxy]-2-methylpropanimidoyl}amino)adamantane-1-carboxylate]
≤ 10 | CC(C)(Oc1ccccc1)/C(=N\C#N)N[C@@H]1[C@@H]2C[C@@H]3C[C@H]1C[C@@](C(N)=O)(C3)C2 [Example 50, (E)-4-{[(1E)-N-cyano-2-methyl-2-phenoxypropanimidoyl]amino}adamantane-1-carboxamide]
> 1000 | COc1ccc(Cl)cc1C(=NC#N)N[C@@H]1[C@@H]2C[C@@H]3C[C@H]1C[C@@](O)(C3)C2 [Example 93, 5-chloro-N′-cyano-N-[(E)-5-hydroxyadamantan-2-yl]-2-methoxybenzenecarboximidamide]
10 to 100 | CC(C)(Oc1ccccc1)C(=NC#N)NC12CCC(C(F)F)(CC1)CC2 [Example 86, N-cyano-N-[4-(difluoromethyl)bicyclo[2.2.2]oct-1-yl]-2-methyl-2-phenoxypropanimidamide]
100 to 1000 | CC(C)(C(=NC#N)NC1C2CC3CC1CC(C(N)=O)(C3)C2)N1CCN(c2ccc(C(F)(F)F)cn2)CC1 (stereo not shown) [Example 31, (E)-4-[((1E)-N-Cyano-2-methyl-2-{4-[5-(trifluoromethyl)pyridin-2-yl]piperazin-1-yl}propanimidoyl)amino]adamantane-1-carboxamide]
> 1000 | CC(C)(Oc1ccc(Cl)cn1)C(=NC#N)NC1C2CC3CC1CC(S(N)(=O)=O)(C3)C2 (stereo not shown) [Example 68, (1E)-2-[(5-chloropyridin-2-yl)oxy]-N-cyano-2-methyl-N-[(E)-5-sulfamoyladamantan-2-yl]propanimidamide]
10 to 100 | CC(C)(Oc1ccccc1)C(=NC#N)NC1C2CC3CC1CC(O)(C3)C2 (stereo not shown) [Example 49, (1E)-N′-cyano-N-[(E)-5-hydroxyadamantan-2-yl]-2-methyl-2-phenoxypropanimidamide]
≤ 10 | CC(C)(Oc1ccccc1F)C(=NC#N)NC1C2CC3CC1CC(O)(C3)C2 (stereo not shown) [Example 80, (1E)-N′-cyano-2-(2-fluorophenoxy)-N-[(E)-5-hydroxyadamantan-2-yl]-2-methylpropanimidamide]
100 to 1000 | CC(C)(Oc1ccc(Cl)cc1F)C(=NC#N)NC1CC2CCC1C2 (stereo not drawn) [Example 66, N-(exo-bicyclo[2.2.1]hept-2-yl)-2-(4-chloro-2-fluorophenoxy)-N-cyano-2-methylpropanimidamide]
10 to 100 | CC(C)(Oc1ccc(F)cc1Cl)C(=S)N[C@@H]1[C@@H]2C[C@@H]3C[C@H]1C[C@@](S(C)(=O)=O)(C3)C2 [Example 12, 2-(2-Chloro-4-fluorophenoxy)-2-methyl-N-[(E)-5-(methylsulfonyl)-2-adamantyl]propanethioamide]
100 to 1000 | CC(C)(Oc1ccccn1)/C(=N\C#N)NC1C2CC3CC1CC(S(C)(=O)=O)(C3)C2 (stereo not shown) [Example 77, (1E)-N′-cyano-2-methyl-N-[(E)-5-(methylsulfonyl)adamantan-2-yl]-2-(pyridin-2-yloxy)propanimidamide]
100 to 1000 | CC(C)(Oc1ccccc1)C(=NC#N)NC12CCC(C#N)(CC1)CC2 [Example 84, N′-cyano-N-(4-cyanobicyclo[2.2.2]oct-1-yl)-2-methyl-2-phenoxypropanimidamide]
> 1000 | N#CN=C(Cc1cccnc1Cl)NC1C2CC3CC1CC(O)(C3)C2 (stereo not shown) [Example 6, (1E)-2-(2-Chloropyridin-3-yl)-N′-cyano-N-[(E)-5-hydroxy-2-adamantyl]ethanimidamide]
100 to 1000 | CC(C)(Oc1ccc(Cl)cc1)C(=NC#N)NC1CC2CCC1C2 (stereo not drawn) [Example 42, N-[exo-Bicyclo[2.2.1]hept-2-yl]-2-(4-chlorophenoxy)-N′-cyano-2-methylpropanimidamide]
100 to 1000 | CC(C)(Oc1ccc(Cl)cc1)/C(=N\C#N)N[C@@H]1[C@@H]2C[C@@H]3C[C@H]1C[C@@](C(=O)O)(C3)C2 [Example 36, (E)-4-{[(1E)-2-(4-Chlorophenoxy)-N-cyano-2-methylpropanimidoyl]amino}adamantane-1-carboxylic acid]
> 1000 | N#C/N=C(\Cc1ccccc1F)N[C@@H]1[C@@H]2C[C@@H]3C[C@H]1C[C@@](O)(C3)C2 [Example 5, (1E)-N′-Cyano-2-(2-fluorophenyl)-N-[(E)-5-hydroxy-2-adamantyl]ethanimidamide]
≤ 10 | CC(C)(Oc1ccc(F)cc1F)C(=NC#N)NC1C2CC3CC1CC(O)(C3)C2 (stereo not shown) [Example 51, (1E)-N′-cyano-2-(2,4-difluorophenoxy)-N-[(E)-5-hydroxyadamantan-2-yl]-2-methylpropanimidamide]

Tested on: patients
Experiment: not given
Conditions: treatment for 4 days; cited from earlier work

SMILES | lowered intraocular pressure [%]
CC1(C)[C@@H](OC(=O)CCC(=O)O)CC[C@]2(C)[C@H]3C(=O)C=C4[C@@H]5C[C@@](C)(C(=O)O)CC[C@]5(C)CC[C@@]4(C)[C@]3(C)CC[C@@H]12 [carbenoxolone] | 10

Same assay, conditions: treatment for 7 days; cited from earlier work

SMILES | lowered intraocular pressure [%]
CC1(C)[C@@H](OC(=O)CCC(=O)O)CC[C@]2(C)[C@H]3C(=O)C=C4[C@@H]5C[C@@](C)(C(=O)O)CC[C@]5(C)CC[C@@]4(C)[C@]3(C)CC[C@@H]12 [carbenoxolone] | 17
